# Assay results from patent US20260083698A1, “Synergistic Stimulation of Mucociliary Clearance to Treat Mucus Obstruction in Cystic Fibrosis and Other Muco-Obstructive Disorders” (The Board of Trustees of the Leland Stanford Junior …, priority 2022, published 2026).
# Tested on: piglet or ferret tracheal rings
# Test: Airway narrowing: lumen area of thin sliced tracheal rings, carbachol
# Set-up: species or system pig; ferret
# Settings: 0.3 mM carbachol alone
# Experimental: FIG. 2. Elevating cAMP by adenylate cyclase activation inhibited muscle tension and airway narrowing to carbachol. (A, B) To measure muscle tension, one end of an isolated WT ferret trachealis muscle bundle was secured in a Sylgard-lined Petri dish filled with KRB solution and the other end was attached by 26-gauge wire to a previously calibrated strain gauge. […] (red closed circles). Averaged responses at 10 min intervals are shown for: (C) WT piglet tracheas (n=3-7) with forskolin. […] (F). CF ferrets (n=2, one CFTRΔF/ΔF and one CFTRΔF/G551D). […] Used alone they have opposite effects: Ca^2+-elevating agonists contract muscles whereas cAMP-elevating agonists relax them. For therapeutic use, the potential for producing unwanted bronchoconstriction with the combined agonists is a safety concern. […] Tension of ferret trachealis muscle bundles was measured to increasing carbachol concentrations±[…] forskolin. […] Importantly, the protective effect was also observed in CF ferrets (FIG. 2F). Airway smooth muscle contraction measurement. Two methods were used to measure tracheal smooth muscle contraction. One is designed to measure airway narrowing using thin sliced tracheal rings. Piglet or ferret tracheal ring preparations of ˜2 mm were submerged and securely pinned on a Sylgard-lined Petri dish filled with KRB solution at 37° C. and pH 7.4. […] The other method is using a force transducer. […]
structure (smiles),measurement,value
C[N+](C)(C)CCOC(N)=O [carbachol],sustained reduction of lumen area,20-40%
